Where two headings read alike, the source gives them in different places. Where no end group is shown, it is not given here.

In one test the test system is LNCaP cells. Type of test: cell-based. The settings on record: 24 h. Here is the method:
(§1) One mM peptide stocks were prepared as for fluorescent versions. Cells were grown to 60%-70% confluence in 96-well plates and treated with 1-20 μM peptides in RPMI-1640 (phenol red-free). After 24 or 48 hours at 37 °C, 5% CO2, PrestoBlue (1/10 dilution) was added for 30 minutes. Fluorescence (λAbs 560 nm/λEm 600 nm) was measured using an Infinite 200 PRO reader (Tecan). Each condition had 3-5 replicates, repeated in 3 independent experiments.
(§2) Figure 3. Synergistic reduction of prostate cancer cell viability by combined AR-BS peptides. […] B) Cells were treated with combinations of AR-BS peptides (5 or 10 μM of each peptide) for 24 hours to assess potential synergistic effects. Cell viability was evaluated using the PrestoBlue Cell Viability Reagent according to the manufacturer’s instructions. Percentage cell viability was calculated as the ratio between treatment and control conditions (cells without treatment). Results are expressed as mean (SD) percentage from 3 independent experiments with 5 replicates per condition. Statistical comparisons were performed using the Mann–Whitney U test. *P < .05. Abbreviations: AR-BS = androgen receptor–binding site; mitP = mitoparan.
(§3) Percentage cell viability was calculated from the ratio between treatment condition and control condition (cells with no treatment). Results are expressed as mean ± SD from three independent experiments with five replicates per condition.

A further test concerns PC3 cells. The class given is cell-based. The following applies: 24 h. Here is the method:
as §1, §2, §3

In the case of KVKPIYFHTGRKKRRQRRRPPQ-NH2 [AR-BS3], the “Cell viability, Mean” value in the test on LNCaP cells (5 μM) turned out to be 91%; with LNCaP cells (10 μM) it was 94%; in the test with LNCaP cells (20 μM) it was 99%; in the test on PC3 cells (5 μM), 79%; in the test with PC3 cells (10 μM), 88%; in the test on PC3 cells (20 μM), 84%.

Turning to RQLVHVVKWAKKL-NH2 [AR-BS2], the “Cell viability, Mean” value is reported as 95% with LNCaP cells (5 μM); 96% in the test with LNCaP cells (10 μM); 83% in the test on LNCaP cells (20 μM); 93% with PC3 cells (5 μM); 87% in the test with PC3 cells (10 μM); 81% in the test on PC3 cells (20 μM).

For the substance GSCKVFFKRAAKGKQK-NH2 [AR-BS1], the “Cell viability, Mean” value in the test with LNCaP cells (5 μM) is given as 97%; with LNCaP cells (10 μM) it was 96%; with LNCaP cells (20 μM) it was 94%; in the test on PC3 cells (5 μM), 89%; in the test on PC3 cells (10 μM) it was 89%; in the test on PC3 cells (20 μM) it was 81%.
